# According to patent publication US8536202B2, “Triazole-substituted anthranilamides as pesticides” (Bayer Cropscience AG, priority 2010, dated 2013):
# Like-named read-outs stand apart in the source and are kept apart here.
# Legend:
# [1] = system: larvae of the mustard beetle (Phaedon cochleariae); experiment: Phaedon test (PHAECO spray treatment); assay type: in vivo; conditions: 168 h, 100 g/ha, after 7 days, read-out: activity in %
# Method: (§1) Solvents: 78.0 parts by weight of acetone • • 1.5 parts by weight of dimethylformamide
# (§2) Emulsifier: 0.5 part by weight of alkylaryl polyglycol ether
# (§3) An appropriate preparation of active compound is prepared by mixing 1 part by weight of active compound with the stated amounts of solvent and emulsifier and diluting the concentrate with emulsifier-containing water to the desired concentration.
# After 7 days, the activity in % is ascertained. Here, 100% means that all of the beetle larvae have been killed; 0% means that no beetle larvae have been killed.
# [2] = system: caterpillars of the armyworm (Spodoptera frugiperda); experiment: Spodoptera frugiperda test (SPODFR spray treatment); assay type: in vivo; conditions: 168 h, 100 g/ha, after 7 days, read-out: activity in %
# Method: as §1, §2, §3
# Leaf discs of maize (Zea mays) are sprayed with a preparation of active compound at the desired concentration and, after drying, are populated with caterpillars of the armyworm (Spodoptera frugiperda).
# After 7 days, the activity in % is ascertained. Here, 100% means that all of the caterpillars have been killed; 0% means that no caterpillar has been killed.
# [3] = log P determination by HPLC on reversed-phase columns (EEC Directive 79/831 Annex V.A8); assay type: physicochemical; conditions: pH 2.7
# Method: Determination by LC-MS in the acidic range takes place at a pH of 2.7 using 0.1% aqueous formic acid and acetonitrile (containing 0.1% formic acid) as eluents, with a linear gradient from 10% acetonitrile to 95% acetonitrile.
# Calibration was carried out using unbranched alkan-2-ones (having 3 to 16 carbon atoms) with known log P values (the log P values are determined from the retention times by linear interpolation between two successive alkanones).
SMILES,pest or weed control at 100 g/ha [1] [%],pest or weed control at 100 g/ha [2] [%],chromatographic logP [3],"chromatographic logP ([3]; reversed-phase C18 HPLC column, HPLC on reversed-phase columns (C 18), EEC Directive 79/831 Annex V.A8, read-out: logP)"
CNC(=O)c1cc(C#N)cc(C)c1NC(=O)c1cc(Cn2cc(-c3cccc(Cl)c3)nn2)nn1-c1ncccc1Cl [Example 36],100,100,2.86,
CNC(=O)c1cc(C#N)cc(C)c1NC(=O)c1cc(Cn2ncc(-c3ccc(F)cc3)n2)nn1-c1ncccc1Cl [Example 40],100,100,2.96,
CNC(=O)c1cc(C#N)cc(C)c1NC(=O)c1cc(Cn2ncc(-c3ccc(Cl)cc3)n2)nn1-c1ncccc1Cl [Example 41],100,100,3.34,
CNC(=O)c1cc(C#N)cc(C)c1NC(=O)c1cc(Cn2ncc(-c3ccc(Cl)cc3Cl)n2)nn1-c1ncccc1Cl [Example 42],100,100,3.81,
CNC(=O)c1cc(C#N)cc(C)c1NC(=O)c1cc(Cn2ncc(-c3ccccc3Cl)n2)nn1-c1ncccc1Cl [Example 43],100,100,3.21,
CNC(=O)c1cc(C#N)cc(C)c1NC(=O)c1cc(Cn2ncc(-c3cccc(Cl)c3)n2)nn1-c1ncccc1Cl [Example 44],100,100,3.23,
Cc1cc(Cl)cc(C(=O)NC(C)(C)C)c1NC(=O)c1cc(Cn2cc(-c3ccc(F)cc3)nn2)nn1-c1ncccc1Cl [Example 45],100,100,3.63,
Cc1cc(C#N)cc(C(=O)NC(C)(C)C)c1NC(=O)c1cc(Cn2cc(-c3ccc(Cl)cc3Cl)nn2)nn1-c1ncccc1Cl [Example 55],100,100,4.06,
Cc1cc(C#N)cc(C(=O)NC(C)(C)C)c1NC(=O)c1cc(Cn2cc(-c3cccc(Cl)c3)nn2)nn1-c1ncccc1Cl [Example 57],100,83,3.55,
Cc1cc(C#N)cc(C(=O)NC(C)(C)C)c1NC(=O)c1cc(Cn2ncc(-c3ccc(F)cc3)n2)nn1-c1ncccc1Cl [Example 61],100,100,3.72,
Cc1cc(C#N)cc(C(=O)NC(C)(C)C)c1NC(=O)c1cc(Cn2ncc(-c3ccc(Cl)cc3)n2)nn1-c1ncccc1Cl [Example 62],100,100,4.06,
Cc1cc(C#N)cc(C(=O)NC(C)(C)C)c1NC(=O)c1cc(Cn2ncc(-c3ccc(Cl)cc3Cl)n2)nn1-c1ncccc1Cl [Example 63],100,100,4.67,
Cc1cc(C#N)cc(C(=O)NC(C)(C)C)c1NC(=O)c1cc(Cn2ncc(-c3ccccc3Cl)n2)nn1-c1ncccc1Cl [Example 64],100,100,4.03,
Cc1cc(C#N)cc(C(=O)NC(C)(C)C)c1NC(=O)c1cc(Cn2ncc(-c3cccc(Cl)c3)n2)nn1-c1ncccc1Cl [Example 65],100,100,4.14,
CNC(=O)c1cc(Cl)cc(C)c1NC(=O)c1cc(Cn2nnc3cc([N+](=O)[O-])ccc32)nn1-c1ncccc1Cl [Example 71],100,100,2.64,
CNC(=O)c1cc(Cl)cc(C)c1NC(=O)c1cc(Cn2nc3ccc(Cl)cc3n2)nn1-c1ncccc1Cl [Example 72],100,100,3.28,
CNC(=O)c1cc(Cl)cc(C)c1NC(=O)c1cc(Cn2nc3ccc(C(F)(F)F)cc3n2)nn1-c1ncccc1Cl [Example 74],100,100,3.48,
CNC(=O)c1cc(Cl)cc(C)c1NC(=O)c1cc(Cn2nc3ccc([N+](=O)[O-])cc3n2)nn1-c1ncccc1Cl [Example 75],100,100,2.95,
CNC(=O)c1cc(Cl)cc(C)c1NC(=O)c1cc(Cn2nc3cc(Cl)c(Cl)cc3n2)nn1-c1ncccc1Cl [Example 77],100,100,3.73,
CNC(=O)c1cc(Cl)cc(C)c1NC(=O)c1cc(Cn2nc3ccc(F)cc3n2)nn1-c1ncccc1Cl [Example 79],100,100,2.89,

SMILES,pest or weed control at 100 g/ha [1] [%],pest or weed control at 100 g/ha [2] [%],chromatographic logP [3],"chromatographic logP ([3]; reversed-phase C18 HPLC column, HPLC on reversed-phase columns (C 18), EEC Directive 79/831 Annex V.A8, read-out: logP)"
CNC(=O)c1cc(C#N)cc(C)c1NC(=O)c1cc(Cn2nc3cc(Cl)c(Cl)cc3n2)nn1-c1ncccc1Cl [Example 81],100,100,3.35,
CNC(=O)c1cc(Cl)cc(C)c1NC(=O)c1cc(Cn2nnc3cc(Br)ccc32)nn1-c1ncccc1Cl [Example 86],100,100,2.94,
CNC(=O)c1cc(Cl)cc(C)c1NC(=O)c1cc(Cn2nc3ccc(Br)cc3n2)nn1-c1ncccc1Cl [Example 87],100,100,3.39,
CNC(=O)c1cc(Cl)cc(C)c1NC(=O)c1cc(Cn2nnc3c(Cl)c(Cl)c(Cl)cc32)nn1-c1ncccc1Cl [Example 88],100,100,3.75,
CNC(=O)c1cc(Cl)cc(C)c1NC(=O)c1cc(Cn2nnc3c(Cl)cc(C(F)(F)F)cc32)nn1-c1ncccc1Cl [Example 89],100,100,3.59,
CNC(=O)c1cc(Cl)cc(C)c1NC(=O)c1cc(Cn2nnc3c(Br)cc(OC(F)(F)F)cc32)nn1-c1ncccc1Cl [Example 90],100,100,3.74,
CNC(=O)c1cc(Cl)cc(C)c1NC(=O)c1cc(Cn2nc3cc(OC(F)(F)F)cc(Br)c3n2)nn1-c1ncccc1Cl [Example 91],100,100,4.17,
CNC(=O)c1cc(C#N)cc(C)c1NC(=O)c1cc(Cn2nnc3c(Cl)c(Cl)c(Cl)c(Cl)c32)nn1-c1ncccc1Cl [Example 92],100,100,3.79,
CNC(=O)c1cc(C#N)cc(C)c1NC(=O)c1cc(Cn2nnc3cc(Br)ccc32)nn1-c1ncccc1Cl [Example 94],100,100,2.66,
CNC(=O)c1cc(C#N)cc(C)c1NC(=O)c1cc(Cn2nc3ccc(Br)cc3n2)nn1-c1ncccc1Cl [Example 95],100,100,3.01,
CNC(=O)c1cc(C#N)cc(C)c1NC(=O)c1cc(Cn2nnc3c(Cl)c(Cl)c(Cl)cc32)nn1-c1ncccc1Cl [Example 96],100,100,3.42,
CNC(=O)c1cc(C#N)cc(C)c1NC(=O)c1cc(Cn2nnc3cc(Br)c(C(F)(F)F)cc32)nn1-c1ncccc1Cl [Example 97],100,100,3.27,
CNC(=O)c1cc(C#N)cc(C)c1NC(=O)c1cc(Cn2nnc3c(Cl)cc(C(F)(F)F)cc32)nn1-c1ncccc1Cl [Example 98],100,100,3.24,
CNC(=O)c1cc(C#N)cc(C)c1NC(=O)c1cc(Cn2nnc3c(Br)cc(OC(F)(F)F)cc32)nn1-c1ncccc1Cl [Example 99],100,100,3.37,
CNC(=O)c1cc(C#N)cc(C)c1NC(=O)c1cc(Cn2nc3cc(OC(F)(F)F)cc(Br)c3n2)nn1-c1ncccc1Cl [Example 100],100,100,3.78,
CNC(=O)c1cc(C#N)cc(C)c1NC(=O)c1cc(Cn2nc3ccc(C(F)(F)F)cc3n2)nn1-c1ncccc1Cl [Example 102],100,100,3.19,
Cc1cc(C#N)cc(C(=O)NC(C)(C)C)c1NC(=O)c1cc(Cn2nc3ccc(Br)cc3n2)nn1-c1ncccc1Cl [Example 107],100,100,3.85,
Cc1cc(C#N)cc(C(=O)NC(C)(C)C)c1NC(=O)c1cc(Cn2nnc3c(Cl)c(Cl)c(Cl)cc32)nn1-c1ncccc1Cl [Example 108],100,100,4.18,
Cc1cc(C#N)cc(C(=O)NC(C)(C)C)c1NC(=O)c1cc(Cn2nnc3cc(Br)c(C(F)(F)F)cc32)nn1-c1ncccc1Cl [Example 109],100,100,,4.02
